Our source for the RP-LC retention time values is the METLIN SMRT retention time set (Domingo-Almenara et al. 2019).

A short description of this data set: gradient 5% acetonitrile 3 min, to 50% in 2 min, to 85% in 15 min, held 3 min, 100 µL/min. Conditions: column: Zorbax Extend-C18 2.1 x 50 mm; eluents: water / acetonitrile, 0.1% formic acid. In short, it runs like this: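 Retention times come from adduct peaks that were picked computationally and then checked by hand. The standards, pure and pooled in mixtures of ~100 molecules, were run on a Zorbax Extend-C18 column (2.1 × 50 mm, 1.8 μm) at 100 μL/min with water and acetonitrile, each with 0.1% formic acid. Detection was by quadrupole time-of-flight mass spectrometry in positive and negative ionization mode, with a dead volume of 40 μL and a dwell volume of 900 μL.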
The compound `COC(=O)c1c(-c2ccccc2)noc1N1CCOCC1` displayed an RP-LC retention time of 860 s. The same measure for `O=C(NC1CC1)C1CCN(c2cncnc2N2CCCCC2)CC1`: 607 s; for `CCOc1ccc(NC(=O)CN2CCc3c(c(=O)c4cc(C)ccc4n3C)C2)cc1`: 637 s; for `Cc1ccc(-n2cc3c(N4CCCC(C(=O)NCc5ccc(F)cc5F)C4)ncnc3n2)cc1` (stereo not given): 729 s. The same measure for `CCCCNC(=O)c1ccc2c(c1)CCCN2S(C)(=O)=O`: 774 s; for `CCN(CC)C(=O)C1CCCN(S(=O)(=O)c2ccc(OC)c(C)c2)C1` (stereo not given): 881 s; for `CCN(CC)c1ccc(NC(=O)C2CCCN(C(=O)c3cc(C)cc(C)c3)C2)c(C)c1` (stereo not given): 659 s. The same measure for `O=C(Cc1cccs1)NC1CCN(C(=O)c2cc(-c3cccs3)[nH]n2)CC1`: 704 s. `Cn1ncc2c(Sc3ccc(Cl)cc3)ncnc21` gave an RP-LC retention time of 1000 s. The same measure for `Cc1noc(C2(NC(=O)Cc3ccc(F)cc3)CCCCC2)n1`: 837 s. Compound `Cc1nn(CC(=O)NCc2ccco2)c(=O)c2nn(-c3ccccc3)c(C)c12` returned an RP-LC retention time of 732 s. The same measure for `O=C(O)c1cn(Cc2ccccc2)c(=O)c2ccccc12`: 788 s; for `CC(NC(=O)c1cc2n(n1)CCCC2)c1ccc(F)cc1` (stereo not given): 818 s. The same measure for `CCOC(=O)Cn1c(=O)c2c(nc3n2CCCCN3c2ccc(OCC)cc2)n(C)c1=O`: 944 s; for `COc1ccc(S(=O)(=O)Nc2cc(C)ccn2)cc1`: 616 s; for `CCc1cccc(N2C(=O)CN(S(C)(=O)=O)CC2(C)C(=O)NCc2ccc(C)cc2)c1` (stereo not given): 905 s. Compound `Cc1nc(-c2nnn(-c3ccccc3)c2C)no1` showed an RP-LC retention time of 769 s. The same measure for `CC(C)NC(=O)C1CCCN(c2nc3ncn(CC(=O)Nc4ccc(Cl)cc4)c(=O)c3s2)C1` (stereo not given): 719 s; for `O=C(c1ccc(N2CCOCC2)nn1)N1CCN(c2cccc(C(F)(F)F)c2)CC1`: 779 s. The same measure for `CCn1cc(CN2C[C@@H](COC)[C@H](c3nc(C)no3)C2)c2ccccc21`: 676 s; for `O=C(CCN1C(=O)C2C3C=CC(C3)C2C1=O)N1CCN(c2ccccn2)CC1` (stereo not given): 572 s; for `CC1=C(c2ccc(Cl)cc2)S(=O)(=O)N=C1N1CCCN(C(=O)c2ccoc2)CC1`: 825 s. The same measure for `CN(C(=O)Cn1nc(Cc2cccnc2)c2ccccc2c1=O)c1ccc(Br)cc1`: 679 s; for `O=C(Nc1cc(C(F)(F)F)ccc1Cl)c1ccc2ncsc2c1`: 922 s; for `O=C(NCC1(c2cccs2)CCOCC1)c1cc(=O)c2ccccc2o1`: 716 s. The compound `CCCOc1nc2ccccc2nc1N1CCCC(C(=O)NCc2ccc(Cl)cc2)C1` (stereo not given) came in with an RP-LC retention time of 1270 s. The same measure for `CC(=O)COc1cc(O)c2c(=O)cc(-c3ccccc3)oc2c1`: 938 s.

As for `CN1c2cc(F)ccc2C(=O)NC12CCN(C(=O)Cc1ccccc1)CC2`, the RP-LC retention time is 779 s.

Turning to `Cc1ccccc1-c1noc(C2CCCN2S(=O)(=O)c2ccc3c(c2)CCCC3)n1` (stereo not given), the RP-LC retention time came out at 1340 s. Compound `Cn1c(N2CCCC(C(=O)NCc3cccnc3)C2)cc(=O)n(C)c1=O` (stereo not given) displayed an RP-LC retention time of 558 s.

The compound `CCn1cc(CCNC(=O)Nc2ccc(Br)cc2F)c2cccnc21` came in with an RP-LC retention time of 838 s. The same measure for `Cc1cccnc1NC(=O)c1c[nH]c2c(C(F)(F)F)cccc2c1=O`: 573 s; for `CCn1cc(-c2nc(C)c(C(=O)Nc3cc(F)ccc3F)s2)c2cccnc21`: 1070 s.

With `CCc1csc(-c2ccc(N3CCN(C(=O)c4nn(C)c5ccccc45)CC3)nc2)n1`, the RP-LC retention time amounted to 966 s.

`COc1cccc(-n2c(=O)c(C(=O)NC3CCCCC3)c(O)c3cccnc32)c1` yielded an RP-LC retention time of 1280 s. The same measure for `O=C(NCCC1=CCCCC1)C1CCCN(c2nccnc2Sc2ccccc2)C1` (stereo not given): 1170 s; for `COc1ccc(-c2nc(N3CCC(C)CC3)c3ccccc3n2)cc1`: 860 s. The same measure for `Cc1nc2cc(N3CCC(C(=O)Nc4ccc5c(c4)OCCO5)CC3)cnc2nc1C`: 697 s; for `O=C(NCCN1CCOCC1)c1csc(N2CCN(c3ccc(F)cc3)CC2)n1`: 664 s; for `O=C(COc1ccc2ccccc2c1)Nc1nc(-c2ccccc2)cs1`: 1180 s. As for `O=C(c1ccc2cc[nH]c2c1)N1CCC2(CC1)N=C(c1ccc(Cl)cc1)NO2`, the RP-LC retention time is 841 s. The same measure for `COc1cccc(C(=O)NCc2nnnn2C2CCCCC2)c1OC`: 784 s; for `CC(C(=O)NCCCN(C)c1ccccc1)n1c(=O)c(C(F)(F)F)nc2ccccc21` (stereo not given): 881 s; for `O=C(CSc1nnc2c3cc(-c4ccccc4)nn3ccn12)NCc1ccccc1`: 781 s. The same measure for `CCOc1cc(=O)c(C(N)=O)nn1-c1ccc(F)c(F)c1`: 637 s. The same measure for `Cc1ccc(C(=O)NC2CCN(c3cc(N4CCCC4)cnn3)C2)s1` (stereo not given): 649 s; for `COC(=O)c1ccsc1NC(=O)c1ccccc1Cl`: 897 s; for `O=C(NCc1csc(C2CCCN(C(=O)COc3ccccc3)C2)n1)C1CC1` (stereo not given): 718 s. Take `Cc1cccc(CNC(=O)C2CCN(C(=O)c3ncn4c3COC(c3ccccc3)C4)CC2)c1` (stereo not given): the RP-LC retention time amounted to 879 s. The same measure for `CCCC(NC(=O)c1ccsc1)C(=O)Nc1nc2ccccc2[nH]1` (stereo not given): 667 s; for `O=C(NCc1csc(-c2ccccc2)n1)C1CCN(C(=O)c2ccc(F)c(F)c2)CC1`: 814 s. `Cc1ccc(-c2cc3c(=O)n(Cc4nc(-c5ccccc5Br)no4)ncn3n2)c(C)c1` yielded an RP-LC retention time of 1250 s. The same measure for `CCCN1C(=O)Cc2cc(C(=O)NCc3ccc(SC)cc3)ccc21`: 829 s; for `CCN1CCN(CCCNC(=O)C2CCCN(C(=O)c3cc4sccc4n3CC)C2)CC1` (stereo not given): 566 s. The same measure for `O=C(c1c[nH]c2ccccc12)N1C[C@@H]2C[C@H]1C[C@@H]2NS(=O)(=O)c1ccccc1`: 679 s; for `O=C(NCc1ccco1)c1cc(-c2cccnc2)nc2ccc(Cl)cc12`: 788 s; for `COc1cc(NC(=O)CN2CCc3[nH]c4c(C)ccc(F)c4c(=O)c3C2)cc(OC)c1`: 604 s. `Cc1cnc(CCC2CCCN2C(=O)CC(F)(F)F)n1C(C)C` (stereo not given): the RP-LC retention time was determined as 600 s.

Compound `Cn1cc(-c2cc3n(n2)CCC(=O)N3CC(=O)NCc2cccnc2)c2ccccc21` came in with an RP-LC retention time of 566 s.

Turning to `Cc1ccc(C)c(-c2csc(NC(=O)c3ccc4c(c3)OCO4)n2)c1`, the RP-LC retention time stood at 1140 s. The same measure for `Cc1cc(C)n(-c2ccnc(NCC(C)C)n2)n1`: 747 s. The same measure for `CCc1ccccc1NC(=O)Cn1c(=O)n(-c2ccc(C)cc2)c(=O)c2c1cc(C)n2C`: 892 s; for `Cc1c(Cl)cccc1NC(=O)Cn1cnc2nc(N3CCOCC3)ncc2c1=O`: 678 s. The same measure for `O=C(Nc1ccc2c(c1)OCCO2)NC1CCN(c2ccccc2)C1=O` (stereo not given): 720 s; for `Cc1ccc2c(Nc3ccc(C(C)C)cc3)c(C(=O)N3CCCC(C)C3)cnc2n1` (stereo not given): 737 s. Take `CCC1(O)CCC12CCN(C(=O)CC1CCCC1)CC2` (stereo not given): the RP-LC retention time came to 830 s.

For the compound `CC1CCN(c2ccc(-c3noc(CN4CCN(c5ccccc5F)CC4)n3)cn2)CC1`, the RP-LC retention time amounted to 1090 s. The same measure for `Cc1ccc(NC(=O)N2CCC(N3CCN(Cc4ccc(F)cc4)C(=O)C3=O)CC2)cc1`: 754 s; for `Cc1oc(-c2[nH]ncc2C(=O)N2CCCCC2)cc1S(=O)(=O)N1CCC(C)CC1`: 809 s; for `O=C1NC(=O)c2c(NC(=O)C3(c4ccc(Cl)cc4)CCCC3)cccc21`: 1060 s. The same measure for `Cc1ccc(-n2c(N3CCCC(C(=O)NCc4ccccc4C)C3)nc3ccsc3c2=O)cc1` (stereo not given): 954 s; for `CCn1c(=O)sc2cc(S(=O)(=O)N3CCC(C(=O)NCC4CCCO4)CC3)ccc21` (stereo not given): 719 s; for `COCCCNC(=O)c1nc(Nc2ccc(F)cc2)c2ccccc2n1`: 696 s.

In the case of `COc1ccc(C2(CNS(=O)(=O)c3ccc(OC)c(Cl)c3)CCOCC2)cc1`, the RP-LC retention time is 842 s. In the case of `Cc1sc(C)c(S(=O)(=O)NCc2cccs2)c1-c1cc(C(F)(F)F)on1`, the RP-LC retention time came to 1100 s. For `O=C(NCc1csc(-c2cccs2)n1)C1CCN(C(=O)CCC2CCCC2)CC1`, the RP-LC retention time came to 878 s. The same measure for `Cc1csc(-c2cc(S(=O)(=O)NCCCc3ccccc3)c(C)s2)n1`: 1080 s. The same measure for `CCOC(=O)c1nc(NCc2ccc(OC)cc2)c2ccccc2n1`: 749 s; for `Cc1ccccc1Nc1c(-c2ccccc2)nc2ccc(Br)cn12`: 799 s; for `Cn1ccc2ccn(CC(=O)Nc3cccc(Br)c3)c(=O)c21`: 827 s.
